Target: T1, human TREK-1 (Homo sapiens, UniProt O95069)
T1 construct: expressed in transfected cells
T1 sequence (O95069 1-426): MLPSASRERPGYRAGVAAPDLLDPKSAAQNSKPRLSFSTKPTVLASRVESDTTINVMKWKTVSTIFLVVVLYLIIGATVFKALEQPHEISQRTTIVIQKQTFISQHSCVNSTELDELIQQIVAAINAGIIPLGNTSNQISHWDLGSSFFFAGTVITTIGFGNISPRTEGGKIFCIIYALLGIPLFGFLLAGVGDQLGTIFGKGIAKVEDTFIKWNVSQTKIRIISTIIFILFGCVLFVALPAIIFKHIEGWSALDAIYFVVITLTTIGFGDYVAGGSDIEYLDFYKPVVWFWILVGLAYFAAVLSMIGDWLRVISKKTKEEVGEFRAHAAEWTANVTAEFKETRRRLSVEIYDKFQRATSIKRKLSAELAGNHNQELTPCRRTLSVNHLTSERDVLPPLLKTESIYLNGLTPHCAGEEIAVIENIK
Test: thallium flux assay (TREK1 activation normalized to BL-1249)
Format: cell-based
Settings: normalized to 10 μM BL-1249, CHO-K1 cells stably expressing human TREK-1; for activation at 10 µM / TREK1 activation RBL-1249 (%): concentration of Example compound 10 μM; for activation at 10 µM / activation at 30 µM: read-out: TREK1 activation RBL-1249 (%); for activation at 30 µM: concentration of Example compound 30 μM
Experimental: The term “thallium flux assay” herein refers to a fluorescence-based assay used to monitor the activity of TREK channels. Thallium is a congener of potassium that readily fluxes through the pore of TREK channels. Thallium flux is measured using a commercially available, thallium-sensitive fluorescent dye called Thallos. The detail method is described below.
Method 1 (Thallium Flux Assay);
CHO-K1 cells stably expressing human TREK-1 or HEK293 cells stably expressing human TREK-2 are plated in 384-well plates, cultured overnight, loaded with Thallos dye the following day, treated with test compounds for 10 min, and then treated with thallium stimulus buffer to initiate thallium flux. The change in fluorescence at 25 seconds after thallium addition is normalized to baseline fluorescence (fluorescent intensity at 25 sec after Tl^+ addition)/(average of fluorescent intensity at pre-read).

| Structure (SMILES) | activation at 10 µM [%] | further results |
| --- | --- | --- |
| O=C(NCc1ccc(C(F)(F)F)cc1Cl)c1ccn2cnnc2c1 [Example 1-31, N-[2-chloro-4-(trifluoromethyl)benzyl][1,2,4]triazolo[4,3-a]pyridine-7-carboxamide] | 90 | – |
| Cc1nnc2cc(C(=O)NCc3ccc(OC(F)(F)F)cc3Cl)ccn12 [Example 9-11] | – | TREK1 activation RBL-1249 (%): 126% |
| COc1cc(OC(F)(F)F)ccc1CNC(=O)c1ccc2ncnn2c1 [Example 1-26, N-[2-methoxy-4-(trifluoromethoxy)benzyl][1,2,4]triazolo[1,5-a]pyridine-6-carboxamide] | – | activation at 30 µM: 74% |
| O=C(NCc1ccc(OC(F)(F)F)c(F)c1)c1ccc2ncnn2c1 [Example 1-23] | – | TREK1 activation RBL-1249 (%): 63% |
| O=C(NCc1ccc(OC(F)(F)F)cc1)c1cc2cccnc2s1 [Example 1-33, N-(4-(trifluoromethoxy)benzyl]thieno[2,3-b]pyridine-2-carboxamide] | 26 | – |
| O=C(NCc1ccc(OC(F)(F)F)cc1Cl)c1cnc2ccnn2c1 [Example 9-8, N-[[2-chloro-4-(trifluoromethoxy)phenyl]methyl]pyrazo1o[1,5-a]pyrimidine-6-carboxamide] | – | TREK1 activation RBL-1249 (%): 106% |
| O=C(NCc1ccc(OC(F)(F)F)cc1F)c1ccn2cnnc2c1 [Example 1-29, N-[2-fluoro-4-(trifluoromethoxy)benzyl][1,2,4]triazolo[4,3-a]pyridine-7-carboxamide] | 80 | – |
| O=C(NCc1ccc(OC(F)(F)F)cc1F)c1ccnc(F)c1 [Example 1-12, 2-fluoro-N-[2-fluoro-4-(trifluoromethoxy)benzyl]isonicotinamide] | – | activation at 30 µM: 63% |
| COc1cc(OC(F)(F)F)ccc1CNC(=O)c1ccc(-c2nnn[nH]2)cc1 [Example 5, N-[2-Methoxy-4-(trifluoromethoxy)benzyl]-4-(1H-tetrazol-5-yl)benzamide] | – | activation at 30 µM: 79% |
| COc1cc(OC(F)(F)F)ccc1CNC(=O)c1ccc(-c2noc(=O)[nH]2)cc1 [Example 4, N-[2-Methoxy-4-(trifluoromethoxy)benzyl]-4-(5-oxo-4,5-dihydro-1,2,4-oxadiazol-3-yl)benzamide] | – | activation at 30 µM: 77% |
| O=C(NCc1ccc(Cl)cc1Cl)c1ccc(CN2CCOCC2)cc1 [Example 7, N-(2,4-Dichlorobenzyl)-4-(4-morpholinomethyl)benzamide] | – | activation at 30 µM: 38% |
| O=C(NCc1ccc(OC(F)(F)F)cc1F)c1ccc(F)nc1 [Example 1-13, 6-fluoro-N-[2-fluoro-4-(trifluoromethoxy)benzyl]nicotinamide] | 65 | – |
| Cc1cc(C(=O)NCc2ccc(Br)cc2Cl)cn2ncnc12 [Example 3-2, N-(4-bromo-2-chlorobenzyl)-8-methyl[1,2,4]triazolo[1,5-a]pyridine-6-carboxamide] | – | activation at 30 µM: 41% |
| O=C(NCc1ccc(OC(F)(F)F)cc1F)c1cnc2ccnn2c1 [Example 1-81, N-[[2-fluoro-4-(trifluoromethoxy)phenyl]methyl]pyrazolo[1,5-a]pyrimidine-6-carboxamide] | 78 | – |
| O=C(NCc1ccc(OC(F)(F)F)cc1)c1ccc(-n2cncn2)cc1 [4-(1H-1,2,4-triazol-1-yl)-N-[4-(trifluoromethoxy)benzyl]benzamide] | 63 | – |
| N#Cc1cc(OC(F)(F)F)ccc1CNC(=O)c1ccc2ncnn2c1 [Example 1-89, N-[[2-cyano-4-(trifluoromethoxy)phenyl]methyl]-[1,2,4]triazolo[1,5-a]pyridine-6-carboxamide] | 70 | – |
| O=C(NCc1ccc(OC(F)(F)F)cc1)c1ccn2ncnc2c1 [Example 1-21, N-[4-(trifluoromethoxy)benzyl][1,2,4]triazolo[1,5-a]pyridine-7-carboxamide] | – | activation at 30 µM: 73% |
| O=C(NCc1ccc(C(F)(F)F)cc1Cl)c1cccc2ncnn12 [Example 1-27, N-[2-chloro-4-(trifluoromethyl)benzyl][1,2,4]triazolo[1,5-a]pyridine-5-carboxamide] | 91 | – |
| Cc1cc(OC(F)(F)F)ccc1CNC(=O)c1cc2ncccn2n1 [Example 1-46, N-[2-methyl-4-(trifluoromethoxy)benzyl]pyrazolo[1,5-a]pyrimidine-2-carboxamide] | 67 | – |
| O=C(NCc1ccc(OC(F)(F)F)cc1Cl)c1ccn2nnnc2c1 [Example 9-17] | – | TREK1 activation RBL-1249 (%): 78% |
| O=C(NCc1ccc(OC(F)F)cc1Cl)c1ccc2ncnn2c1 [Example 1-92, N-[[2-chloro-4-(difluoromethoxy)phenyl]methyl]-[1,2,4]triazolo[1,5-a]pyridine-6-carboxamide] | 70 | – |
| O=C(NCc1ccc(OC(F)(F)F)cc1Cl)c1ccn2cnnc2c1 [Example 9, N-[[2-Chloro-4-(trifluoromethoxy)phenyl]methyl]-[1,2,4]triazolo[4,3-a]pyridine-7-carboxamide] | 99 | – |
| O=C(NCc1ccc(Br)cc1Cl)c1ccc2snnc2c1 [Example 1-86, N-[(4-bromo-2-chlorophenyl)methyl]-1,2,3-benzothiadiazole-5-carboxamide] | 75 | – |
| O=C(NCc1ccc(OC(F)(F)F)cc1)c1ccc(-c2nccs2)cc1 [Example 2-9, 4-(1,3-thiazol-2-yl)-N-+4-(trifluoromethoxy)benzyl+benzamide] | – | TREK1 activation RBL-1249 (%): 25% |
| Cc1cc(OC(F)(F)F)ccc1CNC(=O)c1nc2ncccn2n1 [Example 1-61, N-[2-methyl-4-(trifluoromethoxy)benzyl][1,2,4]triazolo[1,5-a]pyrimidine-2-carboxamide] | – | activation at 30 µM: 48% |

Now from value to molecule, other results behind:

| activation at 10 µM [%] | Structure (SMILES) | further results |
| --- | --- | --- |
| 44 | O=C(NCc1ccc(OC(F)(F)F)cc1)c1ccc(-c2ncccn2)cc1 [Example 2-47, 4-(2-pyrimidinyl)-N-[4-(trifluoromethoxy)benzyl]benzamide] | – |
| 55 | Cc1cc(OC(F)(F)F)ccc1CNC(=O)c1ccc(-n2cccn2)cc1 [Example 2-38, N-[2-methyl-4-(trifluoromethoxy)benzyl]-4-(1H-pyrazol-1-yl)benzamide] | – |
| 66 | O=C(NCc1ccc(OC(F)(F)F)c(F)c1)c1ccc(-c2nc[nH]n2)cc1 [Example 2-22, N-[3-fluoro-4-(trifluoromethoxy)benzyl]-4-(1H-1,2,4-triazol-3-yl)benzamide] | – |
| 48 | COc1cc(OC(F)(F)F)ccc1CNC(=O)c1ccc(-c2nc[nH]n2)cc1 [Example 2-25, N-[2-methoxy-4-(trifluoromethoxy)benzyl]-4-(1H-1,2,4-triazol-3-yl)benzamide] | – |
| 72 | O=C(NCc1ccc(OC(F)(F)F)c(F)c1)c1ccc(-n2cncn2)cc1 [Example 2-3, N-[3-fluoro-4-(trifluoromethoxy)benzyl]-4-(1H-1,2,4-triazol-1-yl)benzamide] | – |
| 87 | Cn1nnc2cc(C(=O)NCc3ccc(OC(F)(F)F)cc3Cl)ccc21 [Example 9-4, N-[[2-chloro-4-(trifluoromethoxy)phenyl]methyl]-1-methylbenzotriazole-5-carboxamide] | – |
| 84 | O=C(NCc1ccc(Br)cc1Cl)c1ccc(-c2ncn[nH]2)cc1 [Example 2-49, N-(4-bromo-2-chlorobenzyl)-4-(1H-1,2,4-triazol-5-yl)benzamide] | – |
| 22 | O=C(NCc1ccc(C(F)(F)F)cc1Cl)c1ccc(-c2cccnc2)cc1 [Example 2-28, N-[2-chloro-4-(trifluoromethyl)benzyl]-4-(3-pyridinyl)benzamide] | – |
| 67 | Cc1nnc2cc(C(=O)NCc3ccc(OC(F)(F)F)c(F)c3)ccn12 [Example 3-3, N-[3-fluoro-4-(trifluoromethoxy)benzyl]-3-methyl[1,2,4]triazolo[4,3-a]pyridine-7-carboxamide] | – |
| 79 | Nc1c(C(=O)NCc2ccc(OC(F)(F)F)cc2Cl)cnc2ccnn12 [Example 9-14, 7-amino-N-[2-chloro-4-(trifluoromethoxy)benzyl]pyrazolo[1,5-a]pyrimidine-6-carboxamide] | – |
| 76 | O=C(NCc1ccc(C(F)(F)F)cc1Cl)c1ccc(-c2nc[nH]n2)cc1 [Example 2-26, N-[2-chloro-4-(trifluoromethyl)benzyl]-4-(1H-1,2,4-triazol-3-yl)benzamide] | – |
| 39 | O=C(NCc1ccc(SC(F)(F)F)cc1)c1ccc(-n2cncn2)cc1 [Example 2-18, 4-(1H-1,2,4-triazol-1-yl)-N-{4-[(trifluoromethyl)thio]benzyl}benzamide] | – |
| 68 | Cc1cc2ncc(C(=O)NCc3ccc(OC(F)(F)F)cc3Cl)cn2n1 [Example 9-19, N-[2-chloro-4-(trifluoromethoxy)benzyl]-2-methylpyrazolo[1,5-a]pyrimidine-6-carboxamide] | – |
| 73 | O=C(NCc1ccc(OC(F)(F)F)cc1F)c1ccc(-c2ncc[nH]2)cc1 [Example 2-36, N-[2-fluoro-4-(trifluoromethoxy)benzyl]-4-(1H-imidazol-2-yl)benzamide] | – |

Source: patent US11851428B2, “Activator of TREK (TWIK RElated K+channels) channels” (ONO PHARMACEUTICAL CO., LTD., priority 2016, dated 2023)
